# Experimental data taken from patent US6670481B2, “Oxiranecarboxylic acids for the treatment of diabetes” (Medicone AG Gesellschaft fur Molekularbiologische …, priority 1997, dated 2003).
# System: fed, healthy rats
# Test: Cholesterol-lowering effect in blood plasma of fed, healthy rats
# Type: in vivo, rat (male Sprague-Dawley)
# Details: oral 100 μmol/kg for 16 days, 24 hours after last administration, mean of 10
# Protocol: (§1) What is stated are the changes in per cent of the animals which have been treated with substance, compared to control animals which were treated with placebo, calculated from the mean values of in each case 10 individual values.
# (§2) The test animals used were male Sprague-Dawley rats from the SPF breed Ivanovas (Kisslegg, Germany) having a body mass of 255-400 g. The animals were kept in a conventional manner, 4 animals each in cages made of Makrolon (22×38 cm) in a climatized room (21-23 degrees Celsius) with a fixed day/night rhythm (7a.m/7p.m) and a regulated relative atmospheric humidity of 55-60%. The animals received a maintenance diet—Altromin 1320 from Altromin (Lage, Germany)—and water ad libitum.
# (§3) The animals were divided at random in 5 groups of 10 animals each and marked. The substances were administered to the animals in the form of a neutral, aqueous emulsion (1 part by weight of substance+2 parts by weight of Cremophor EL—an emulsifier from BASF AG, Germany—) in a volume of 10 ml/kg of body weight using a stomach tube.
# (§4) To determine the parameters triglycerides, cholesterol and the activity of the glutamic-pyruvic transaminase (GPT), blood plasma was used. The blood plasma was obtained as an erythrocyte-free supernatant 15 minutes after venous blood sampling into heparinized Eppendorf reaction vessels by centrifugation (2×2 minutes at 16,000 rpm in an Eppendorf centrifuge).
# Enzymatic colour test (CHOD-PAP method), test combination from Boehringer Mannheim, Germany.
row,Compound,"(C) Cholesterol (%), change vs placebo-treated control animals [%]"
1,CCOC(=O)C1(CCCCCCOc2ccc(Cl)cc2)CO1 (stereo not drawn) [Substance 1],−15
2,CCOC(=O)C1(CCCCCCOc2ccc(OC(F)F)cc2)CO1 (stereo not drawn) [Substance 2],−13
3,CCOC(=O)C1(CCCCCOc2ccc(OC(F)F)cc2)CO1 (stereo not drawn) [Substance 3],−26
4,CCOC(=O)C1(CCCCCOc2ccc(C(C)=O)cc2)CO1 (stereo not drawn) [Substance 4],−8

# System: fed, healthy rats
# Test: Triglyceride-lowering effect in blood plasma of fed, healthy rats
# Type: in vivo, rat (male Sprague-Dawley)
# Details: blood plasma; fed healthy rats; oral 100 μmol/kg for 16 days; 24 hours after last administration; mean of 10
# Protocol: as §1, §2, §3, §4
# Enzymatic test with lipase/glycerokinase, test combination from Boehringer Mannheim, Germany.
row,Compound,"(B) Triglycerides (%), change vs placebo-treated control animals [%]"
1,CCOC(=O)C1(CCCCCCOc2ccc(Cl)cc2)CO1 (stereo not drawn) [Substance 1],−50
2,CCOC(=O)C1(CCCCCCOc2ccc(OC(F)F)cc2)CO1 (stereo not drawn) [Substance 2],−69
3,CCOC(=O)C1(CCCCCOc2ccc(OC(F)F)cc2)CO1 (stereo not drawn) [Substance 3],−73
4,CCOC(=O)C1(CCCCCOc2ccc(C(C)=O)cc2)CO1 (stereo not drawn) [Substance 4],−41

# Same assay, conditions: result in words, from Tab. 1
row,Compound,"Effect compared to the prior art, taking into account the triglyceride- and cholesterol-lowering effect"
1,CCOC(=O)C1(CCCCCOc2ccc(OC(F)F)cc2)CO1 (stereo not drawn) [Substance 3],superior to the prior art

# System: healthy, fed rats
# Test: Increase of relative weight of the heart (cardiac hypertrophy)
# Type: in vivo, rat (male Sprague-Dawley)
# Details: weight of heart/100 g body weight, oral equimolar doses for 16 days, 24 hours after last administration
# Text: as §2, §3
# The animals were killed by decapitation and exsanguination, and the weight of the heart muscle, which had been freed from the right atrium, was determined by weighing and based on 100 g of body. weight.
row,Compound,"(B) Relative weight of the heart (%), increase [%]"
1,CCOC(=O)C1(CCCCCCOc2ccc(Cl)cc2)CO1 (stereo not drawn) [Substance 1],14
2,CCOC(=O)C1(CCCCCCOc2ccc(OC(F)F)cc2)CO1 (stereo not drawn) [Substance 2],14
3,CCOC(=O)C1(CCCCCOc2ccc(OC(F)F)cc2)CO1 (stereo not drawn) [Substance 3],11
4,CCOC(=O)C1(CCCCCOc2ccc(C(C)=O)cc2)CO1 (stereo not drawn) [Substance 4],−2

# System: healthy, fed rats
# Test: Pharmacological safety index
# Type: in vivo, rat (male Sprague-Dawley)
# Details: lowering of glucose + triglycerides + cholesterol in per cent divided by increase of GPT activity + relative heart weight in per cent; higher = safer
# Text: The higher the index, the greater the safety of the substance.
row,Compound,(C) Safety index (%)
1,CCOC(=O)C1(CCCCCCOc2ccc(Cl)cc2)CO1 (stereo not drawn) [Substance 1],3.77
2,CCOC(=O)C1(CCCCCCOc2ccc(OC(F)F)cc2)CO1 (stereo not drawn) [Substance 2],5.74
3,CCOC(=O)C1(CCCCCOc2ccc(OC(F)F)cc2)CO1 (stereo not drawn) [Substance 3],5.48
4,CCOC(=O)C1(CCCCCOc2ccc(C(C)=O)cc2)CO1 (stereo not drawn) [Substance 4],56

# Same assay, conditions: result in words, from Table 2
row,Compound,Safety index compared to the prior art
1,CCOC(=O)C1(CCCCCCOc2ccc(OC(F)F)cc2)CO1 (stereo not drawn) [Substance 2],superior to the prior art
2,CCOC(=O)C1(CCCCCOc2ccc(OC(F)F)cc2)CO1 (stereo not drawn) [Substance 3],superior to the prior art
3,CCOC(=O)C1(CCCCCOc2ccc(C(C)=O)cc2)CO1 (stereo not drawn) [Substance 4],particularly superior to the prior art

# System: insulin-resistant rats (after 24 hour fasting)
# Test: Blood glucose-lowering effect in insulin-resistant (24 hour fasted) rats
# Type: in vivo, rat (male Sprague-Dawley)
# Details: blood; rats fasted 24 hours; 2 hours after oral administration of 100 μmol/kg; mean of 10 animals
# Protocol: The compounds of the formula I according to the invention lower the glucose concentration in the blood of rats which have been made insulin-resistant by prolonged fasting.
# as §1, §2
# To determine the effect of the substance on blood glucose, feed was withdrawn 24 hours before the administration of the substance to produce an insulin-resistant condition.
# as §3
# To determine the glucose in the blood, 50 μl of blood were collected from the retrobulbular venousplexus 2 hours after the administration of the substance, using a glass capillary, from animals which had been fasting for 24 hours, and the blood was deproteinated in ice-cold perchloric acid (0.66 mol/l). After centrifugation, the glucose was determined in the supernatant using enzymatic standard methods.
# Enzymatic test with hexokinase/[…], test combination from Boehringer Mannheim, Germany.
row,Compound,"(A) Glucose (%), change vs placebo-treated control animals [%]"
1,CCOC(=O)C1(CCCCCCOc2ccc(Cl)cc2)CO1 (stereo not drawn) [Substance 1],−18
2,CCOC(=O)C1(CCCCCCOc2ccc(OC(F)F)cc2)CO1 (stereo not drawn) [Substance 2],−27
3,CCOC(=O)C1(CCCCCOc2ccc(OC(F)F)cc2)CO1 (stereo not drawn) [Substance 3],−27
4,CCOC(=O)C1(CCCCCOc2ccc(C(C)=O)cc2)CO1 (stereo not drawn) [Substance 4],−7

# Same assay, conditions: fasting as experimental model of insulin resistance; result in words
row,Compound,Superiority compared to the prior art with respect to lowering glucose after fasting
1,CCOC(=O)C1(CCCCCCOc2ccc(OC(F)F)cc2)CO1 (stereo not drawn) [Substance 2],particularly pronounced
2,CCOC(=O)C1(CCCCCOc2ccc(OC(F)F)cc2)CO1 (stereo not drawn) [Substance 3],particularly pronounced

# System: healthy, fed rats
# Test: Increase in activity of liver enzyme glutamic-pyruvate transaminase (GPT) in blood plasma
# Type: in vivo, rat (male Sprague-Dawley)
# Details: oral equimolar doses for 16 days, 24 hours after last administration
# Text: as §2, §3, §4
# Kinetic enzyme test, test combination from Boehringer Mannheim, Germany.
row,Compound,"(A) GPT activity (%), increase [%]"
1,CCOC(=O)C1(CCCCCCOc2ccc(Cl)cc2)CO1 (stereo not drawn) [Substance 1],8
2,CCOC(=O)C1(CCCCCCOc2ccc(OC(F)F)cc2)CO1 (stereo not drawn) [Substance 2],5
3,CCOC(=O)C1(CCCCCOc2ccc(OC(F)F)cc2)CO1 (stereo not drawn) [Substance 3],12
4,CCOC(=O)C1(CCCCCOc2ccc(C(C)=O)cc2)CO1 (stereo not drawn) [Substance 4],−9
